# In patent US20040097534A1, “Composition for the protection and regeneration of nerve cells containing berberine derivatives” (EUGENBIO INC., priority 2001, published 2004):
# “And” between values parts separate entries of the source, which are not always exact repeats. Identical values can stand only once. “Also recorded” adds a separate entry of the source.
# Experiments:
# PC12 cells [1] = assay: MTT assay, PC12 survival under dexamethasone (glucocorticoid) stress; assay type: cell-based, rat
# Experimental: (§1) Cell injuries under condition of serum deprivation-induced stress and oxidative stress were measured by MTT assay. For MTT assay, Cells were seeded into N2 medium in an amount of 7.5×10^3 cells, and then a neurotoxin or a nerve growth factor was added thereto to differentiate the cells and then 0.1 volume of 4 mg/ml MTT was further added. The mixture was stored at 37° C. for 3-4 hours. After 100 μl of solubilization buffer was added to the mixture and then stored for 24 hours, O.D. values were measured by ELISA assay.
# Glucocorticoids are hormones secreted from the adrenal glands, and involve in a variety of metabolic processes including glycometabolism. In particular, stress causes release of glucocorticoids to reduce cell divisions of neuronal stem cells in the brain and induce apoptosis of nerve cells. Therefore, PC12 cells were treated with dexamethasone, a glucocorticoid derivative, to examine the effect of berberine against apoptosis of nerve cells. 3 hours after treatment with berberine, dexamethasone (1) was added to a culture solution and incubated for 2 days to induce neuroregeneration (see, Table 5 and FIG. 5b).
# PC12 cells [2] = assay: MTT assay, PC12 survival under serum deprivation-induced stress; assay type: cell-based, rat; details: RPMI + NGF 100 ng/ml
# Experimental: as §1
# NGF, increasing cell survival and inducing cell differentiation, was used as a positive control. After the cells were treated with berberine (0.25˜3 μg/ml), the cells were cultured for 2 days to induce nerve regeneration (see, Table 3 and FIG. 5a).
# HiB5 cells [3] = assay: Induction of differentiation of HiB5 cells into nerve cells (neurite count, confocal); assay type: cell-based, white rat; details: HiB5, bFGF positive control
# Experimental: (§2) Thereafter, the culture was treated with berberine and further cultured for 2 days. The cultured cells were immunostained with nerve cell-specific labeled molecule, and then the number of cells having neurites longer than cell bodies was counted under a confocal microscope. A positive control was treated with bFGF under the same condition as described above to induce the differentiation into nerve cells. In addition, the neuroregenerative effect was examined after berberine together with bFGF was treated. The differentiation degree was measured by double-staining neurites with nerve cell-specific labeled molecule (anti-neurofilament antibody) and FITC-labeled secondary antibody (green), followed by staining cell nuclei with propidium iodide (red).
# HiB5 cells [4] = system: HiB5 cells
# Experimental: Since HiB5 cells derived from white rat embryonic hippocampus were prepared by retroviral infection of temperature sensitive SV40 large T antigen, they divided at […], but the cell division stopped at 39° C. (body temperature of rat). […] Cell culture medium was prepared by adding a mixture of 10% FBS (fetal bovine serum), penicillin/streptomycin, glutamine and sodium pyruvate (0.11 g/L) to DMEM. On differentiating at 39° C., another cell culture medium was prepared by adding pyruvate to a serum-free medium (N2, containing DMEM/F12, insulin, transferrin, Putreseine and BSA; Botten Stein & Sato., 1979). PC12 cells and SH-SY5Y cells were cultured in DMEM supplemented with 10% FBS. In order to differentiate the cells, NGF or retinoic acid was added to a serum-free medium.
# as §1
# HiB5 cell line used in this experiment was prepared by infecting primary cultured cells of temperature sensitive SV40 large T antigen in rat embryonic hippocampus (embryonic day 16) using retroviral vectors. The HiB5 cell line was divided at the permissive temperature (32° C.), but the cell division stopped at the non-permissive temperature (body temperature of rat: 39° C.). A small number of GABAegic neurons differentiated in the rat embryonic hippocampus (embryonic day 16), and glutamatergic pyramidal cell precursors still divided, some of which penetrated into dentate gyrus regions through dentate migration pathways in embryonic day 18 to differentiate into glutamatergic granule cells (Altman J., Bayer. S. A. (1990a) Prolonged sojourn of developing pyramidal cells in the intermediate zone of the hippocampus and their settling in the stratum pyramidale. J Comp Neurol. 301, 343-64.; Altman J., Das G. D. (1965) Post-natal origin of microneurones in the rat brain, Nature. 28, 953-956.). When cells stop their cell-division and start to differentiate in vivo, apoptosis occurs.
# In order to evaluate the protective effect of berberine against apoptosis and the effect of increasing cell survival, HiB5 cells were cultured under conditions for initiation of differentiation. At this time, the culture was treated with berberine at various concentrations (50 ng/ml˜6 μg/ml). The protective effect of berberine against apoptosis was measured by MTT assay. A positive control group was treated with bFGF to block apoptosis, increase cell survival and induce the differentiation into nerve cells.
# Since HiB5 neuronal stem cells undergo cell death during the differentiation, the cells were considered as a negative control group. The percentage of O.D. values is determined for the groups treated with bFGF and berberine, respectively.
# SH-SY5Y cells [5] = assay: MTT assay, SH-SY5Y survival under serum deprivation-induced stress; assay type: cell-based, human; details: N2 + retinoic acid 5 μM
# Experimental: as §1
# In order to prepare a stroke-like cell model using SH-SY5Y, the cells were cultured under serum deprivation. […] Retinoic acid, which induces the differentiation of SH-SY5Y as a cell differentiation factor, was used as a positive control. 3 hours before depriving serum, the cells were treated with berberine (0.25˜3 μg). The cells were cultured in chemically defined media (N2) for 2 days to induce nerve regeneration (see, Table 2 and FIG. 4a).
# SH-SY5Y cells [6] = assay: MTT assay, SH-SY5Y survival under oxidative stress (H2O2); assay type: cell-based, human
# Experimental: SH-SY5Y cells were treated with H2O2 for 30 minutes to induce cell injuries. 3 hours before the cells were treated with H2O2, berberine (0.25˜3.5 μg) was added to cell culture to examine its cell protection effect (see, Table 4 and FIG. 4b).
# SH-SY5Y cells [7] = assay: Neurite regeneration in SH-SY5Y cells; assay type: cell-based, human; details: retinoic acid
# Experimental: as §2, with “(red). In order to examine the effect of berberine on neurite regeneration, SH-SY5Y cells were used as differentiated nerve cell lines. Retinoic acid inducing neurite growth was used as a positive control.” for “(red).”
# [8] = system: nerve cells highly sensitive to NMDA receptors; details: MK-801 to young rat (7-8-days old); cited from earlier work
# [9] = system: nerve cells in CA1, dentate gyrus and entorhinal cortex; assay: Animal model for dementia (ibotenic acid into entorhinal cortex), calbindin-positive neuron count; assay type: in vivo, rat
# Experimental: After white rat brain was fixed with a stereotaxic frame, 1.5 μl (1 mg/ml) of ibotenic acid and PBS, or 1.5 μl (1 mg/ml) of berberine was injected into the entorhinal cortex region using a microinjector to prepare a model for dementia. […]
# Brain was fixed with 4% paraformaldehyde and cryosected to a thickness of 40 μm, and then the cryosected brain was permeablized with 0.5% Triton X-100 for 20 minutes and blocked using 15% blocking serum for 2 hours. After reacting with anti-calbindin antibody at a temperature 4° C. for 16 hours and then further reacting with FITC-labeled secondary antibody or rhodamin (TRITC)-labeled secondary antibody for 1 hour, the cells were fixed on a slide before examining under a confocal microscope.
# As an animal model for dementia, ibotenic acid was microinjected into the entorhinal cortex of adult rat brain using a stereotaxic frame.
# First, an adult rat was anesthetized, and its head was fixed with a stereotaxic frame. Subsequently, 1.5 μl (1 mg/ml) of ibotenic acid was injected into the entorhinal cortex region to prepare a model for dementia, and then berberine was injected into the same site. 2 weeks after operation, brain tissue sections were counter-stained with hematocylin to examine apoptosis and protective effect. After fluorescence-staining the cells, regions used for cell count were represented as squares (FIG. 14). In addition, the cells were fluorescence-stained with calbindin antibody, a nerve-specific marker, to examine nerve cell survival (see, Tables 8 to 10, FIGS. 11 and 12).
# [10] = N2 + dexamethasone + NGF 100 ng/ml
# [11] = Ibotenic Acid alone (reference)
molecule,measurement,setting,value
"NGF: nerve growth factor, positive control in PC12 cells",Average (O.D. relative to dexamethasone alone),PC12 cells [1]; [10],147%
same,O.D.,PC12 cells [1]; [10],0.283
same,cell survival rate increase,"PC12 cells [1]; dexamethasone stress, 2 days",about 1.5 times
same,O.D.,PC12 cells [2]; 2 days,0.349
same,Average (O.D. relative to RPMI),PC12 cells [2]; RPMI = 100%,208%
"bFGF: basic fibroblast growth factor, positive control increasing HiB5 survival and differentiation",differentiation into nerve cells (morphology),HiB5 cells [3],induced the differentiation into nerve cells; also recorded: cell bodies got smaller and neurites got longer
same,"cell survival rate / protective effect against apoptosis, increase over control","HiB5 cells [4]; HiB5 under differentiation conditions, MTT",1.5 times and 1.6 times
same,O.D. %,"HiB5 cells [4]; bFGF 20 ng, control = 100",150%
"CC1=C(/C=C/C(C)=C/C=C/C(C)=C/C(=O)O)C(C)(C)CCC1 [Retinoic acid, reference compound]",O.D.,SH-SY5Y cells [5]; 2 days,0.871.
same,Average (O.D. relative to N2),SH-SY5Y cells [5]; N2 = 100%,130%
same,Average (O.D. relative to H2O2 alone),"SH-SY5Y cells [6]; N2, H2O2 + retinoic acid 5 μM",321%
same,O.D.,"SH-SY5Y cells [6]; N2, H2O2 + retinoic acid 5 μM",0.179
same,Number of differentiated cells,SH-SY5Y cells [7]; N2 = 22.30,18.91
same,total average cell numbers,SH-SY5Y cells [7]; N2 = 42.33,24.75
same,Average (%) of differentiated cells,SH-SY5Y cells [7]; N2 = 44.47,81.59%
"C[C@@H]1C[C@H]2[C@@H]3CCC4=CC(=O)C=C[C@]4(C)[C@@]3(F)[C@@H](O)C[C@]2(C)[C@@]1(O)C(=O)CO [Dexamethasone, dexamethasone, reference compound]",O.D.,PC12 cells [1]; N2 + dexamethasone 1 μM alone,0.193
same,Average (O.D. relative to dexamethasone alone),PC12 cells [1]; N2 + dexamethasone 1 μM alone (reference = 100%; N2 = 118%),100%
MK-801,"number of dead nerve cells, of total nerve cells",[8],12-26%
"N[C@H](C(=O)O)c1cc(=O)[nH]o1 [Ibotenic Acid, ibotenic acid, reference compound]","cell number relative to Ibotenic Acid average = 100, CA (individual animals #1-#3)",[9]; Ibotenic Acid alone,116 and 112 and 73
same,"cell number relative to Ibotenic Acid average = 100, DG (individual animals #1-#3)",[9]; Ibotenic Acid alone,123 and 105 and 72
same,"cell number relative to Ibotenic Acid average = 100, ENT (individual animals #1-#3)",[9]; Ibotenic Acid alone,100 and 105 and 94
same,"cell number, CA (individual animals #1-#3)",[9]; Ibotenic Acid alone,57 and 55 and 36
same,"cell number, CA, AVR",[9]; Ibotenic Acid alone,49.3
same,"cell number, DG (individual animals #1-#3)",[9]; Ibotenic Acid alone,227 and 193 and 133
same,"cell number, DG, AVR",[9]; Ibotenic Acid alone,184.3
same,"cell number, ENT (individual animals #1-#3)",[9]; Ibotenic Acid alone,73 and 77 and 68
same,"cell number, ENT, AVR",[9]; Ibotenic Acid alone,72.7
same,"cell number (%) relative to Ibotenic Acid, CA, average",[9]; [11],100%
same,"cell number (%) relative to Ibotenic Acid, DG, average",[9]; [11],100%
same,"cell number (%) relative to Ibotenic Acid, ENT, average",[9]; [11],100%
same,reduction of calbindin-positive neurons in the hippocampus and entorhinal cortex,"[9]; ibotenic acid alone, 2 weeks after microinjection",30˜40%
same,"calbindin-positive neurons, recovery","[9]; ibotenic acid alone, 4 weeks after microinjection",recovered somewhat; also recorded: some of them were recovered
"OO [H2O2, reference compound]",O.D.,"SH-SY5Y cells [6]; N2, H2O2 150 μM alone",0.056
same,Average (O.D. relative to H2O2 alone),"SH-SY5Y cells [6]; N2, H2O2 150 μM alone (reference = 100%; N2 without H2O2 = 429%)",100%
